How the values were obtained:
[1] = tested on: S100P G-quadruplex (DNA, G4) AGGGTGGGACAGTGGGGTTGGGA; assay: UV-vis titration of ligand with DNA; conditions: K+ 100 mM, Li+ 10 mM; 10 mM lithium cacodylate; DNA at pH 7, ligand stock buffer pH 5.5; analysis method 1 (method 2: 1.5 ± 0.2)
[2] = tested on: hTelo i-motif (DNA, i motif) TAACCCTAACCCTAACCCTAACCC; assay: CD melting; conditions: K+ 100 mM, Li+ 10 mM; 10 mM lithium cacodylate pH 5.5; 10 μM DNA; 50 μM compound (5 eq.); destabilising
[3] = tested on: S100P i-motif (DNA, i motif) TCCCAACCCCACTGTCCCACCCT; assay: UV-vis titration of ligand with DNA; conditions: K+ 100 mM, Li+ 10 mM; 10 mM lithium cacodylate pH 5.5; 5 μM ligand; analysis method 1 (method 2: 10.8 ± 2.9)
[4] = tested on: DAP i-motif (DNA, i motif) CCCCCGCCCCCGCCCCCGCCCCCGCCCCCG; assay: CD melting; conditions: K+ 100 mM, Li+ 10 mM; 10 mM lithium cacodylate pH 5.5; 10 μM DNA; 50 μM compound (5 eq.); destabilising
[5] = tested on: ILPR i-motif (DNA, i motif) TGTCCCCACACCCCTGTCCCCACACCCCTGT; assay: CD melting; conditions: K+ 100 mM, Li+ 10 mM; 10 mM lithium cacodylate pH 5.5; 10 μM DNA; 50 μM compound (5 eq.); destabilising
[6] = tested on: S100P i-motif (DNA, i motif) TCCCAACCCCACTGTCCCACCCT; assay: CD melting; conditions: K+ 100 mM, Li+ 10 mM; 10 mM lithium cacodylate pH 5.5; 10 μM DNA; 50 μM compound (5 eq.); destabilising
[7] = tested on: S100P i-motif (DNA, i motif) TCCCAACCCCACTGTCCCACCCT; assay: CD titration, Hill fit of ellipticity at 288 nm; conditions: K+ 100 mM, Li+ 10 mM; 10 mM lithium cacodylate pH 5.5; 10 μM DNA; i-motif unfolding; Hill n 2.3 ± 0.2

O=C1c2cc(-c3ccc(CN4CCCC4)cc3)c3c4c(cc(NCCN5CCCC5)c(c24)C(=O)N1CCCN1CCOCC1)C(=O)N(CCCN1CCOCC1)C3=O
Kd [1]: 2.0 ± 0.3 µM
ΔTm [2]: -16.6 ± 0.7 °C
Kd [3]: 11.7 ± 2.9 µM
ΔTm [4]: -21.6 ± 1.1 °C
ΔTm [5]: -18.8 ± 0.4 °C
ΔTm [6]: −20.7 ± 1.1 °C
[D]50% [7]: 31 ± 4 µM

Reference: PMC10732280 (2023)
